# Data reported in patent US4554367A, “Phosphonium organohalogenostannates-IV” (priority 1982, dated 1985).
# Key:
# [1] = tested on: Chlorella vulgaris; experiment: Action against Chlorella vulgaris; type: cell-based; parameters: key to Growth in the medium: 1: no growth in the medium, 3 ppm have a growthinhibiting action; key to Growth on the agar: 2: no growth on the agar, 3 ppm have destroyed the algae within 6 hours; settings: 3 mg/liter; for Growth on the agar: 6 hours exposure (algae-destruction action); for Growth in the medium: 14 days (inhibition of growth)
# Experimental: Determination of the action against algae
# A Chlorella vulgaris culture grown for 14 days in algae nutrient medium is diluted 1:200 in algae nutrient medium. Each of the compounds listed in Table E is then added such that a concentration of 3 mg/liter results. After incubation for 6 hours, 10 μl are in each case withdrawn and dripped onto algae agar in order to determine the destructive action.
# [2] = tested on: Cladosporium cladosporioides; experiment: MIC against fungi, strain K; type: cell-based; settings: malt extract agar
# Experimental: (§1) Determination of the minimum inhibitory concentration (MIC) against fungi
# (§2) The investigation is carried out in malt extract agar (Merck) by the known agar incorporation test using the fungi
# K Cladosporium cladosporioides
# (§3) For inhibition, the various compounds are in each case added in amounts such that concentrations of […] results in the agar. The concentrations (mg/liter) required for inhibition of the growth of the fungi (starting from traces of fungi dripped on) are illustrated in Table D.
# [3] = tested on: Aureobasidium pullulans; experiment: MIC against fungi, strain N; type: cell-based; settings: malt extract agar
# Experimental: as §1, §2
# N Aureobasidium pullulans
# as §3
# [4] = tested on: Pseudomonas aeruginosa; experiment: MIC against bacteria, strain B; type: cell-based; settings: 24 h, 30° C., tested at 100 or 300 mg/liter
# Experimental: (§4) Determination of the minimum inhibitory concentration (MIC) against bacteria
# (§5) ONCs (cultures incubated overnight) of the bacteria strains A-F grown in Caso-Peptone broth (Merck) are each diluted […] in saline. An amount of the suspension is introduced into Caso-Peptone broth such that the bacteria are again diluted 1:1,000. The cultures are treated with 100 or 300 mg/liter of the phosphonium stannates shown in Table B. After incubation at 30° C. in a shaking water bath for 24 hours, the cultures are evaluated on the basis of cloudiness. The MIC is the concentration at which the broth is not clouded by bacterial growth.
# [5] = tested on: Aspergillus phoenicia; experiment: MIC against fungi, strain H; type: cell-based; settings: malt extract agar
# Experimental: as §1, §2, §3
# [6] = tested on: Endomyces geotrichum; experiment: MIC against fungi, strain M; type: cell-based; settings: malt extract agar
# Experimental: as §1, §2, §3
# [7] = tested on: Penicillium funiculosum; experiment: MIC against fungi, strain I; type: cell-based; settings: malt extract agar
# Experimental: as §1, §2
# I Penicillium funiculosum
# as §3
# [8] = tested on: Alternaria alternata; experiment: MIC against fungi, strain J; type: cell-based; settings: malt extract agar
# Experimental: as §1, §2, §3
# [9] = tested on: Alkaligenes denitrificans; experiment: MIC against bacteria, strain E; type: cell-based; settings: 24 h, 30° C., tested at 100 or 300 mg/liter
# Experimental: as §4, §5
# [10] = tested on: Proteus vulgaris; experiment: MIC against bacteria, strain A; type: cell-based; settings: 24 h, 30° C., tested at 100 or 300 mg/liter
# Experimental: as §4, §5
# [11] = tested on: Artemia salina; experiment: Action against Artemia salina; type: in vivo; parameters: key: 0: nauplii not affected; 1: slight change; 1-2: nauplii affected; 2: nauplii severely affected; 2-3: almost all nauplii dead; 3: all nauplii dead
# From the text: Determination of the action against Artemia salina
# The commercially available eggs are caused to hatch under powerful aeration. […]
# [12] = tested on: Bacillus subtilis; experiment: MIC against bacteria, strain F; type: cell-based; settings: 24 h, 30° C., tested at 100 or 300 mg/liter
# Experimental: as §4, §5
# [13] = tested on: Chaetomium globosum; experiment: MIC against fungi, strain O; type: cell-based; settings: malt extract agar
# Experimental: as §1, §2, §3
# [14] = tested on: Candida albicans; experiment: MIC against fungi, strain L; type: cell-based; settings: malt extract agar
# Experimental: as §1, §2, §3
# [15] = tested on: Enterobacter aerogenes; experiment: MIC against bacteria, strain C; type: cell-based; settings: 24 h, 30° C., tested at 100 or 300 mg/liter
# Experimental: as §4, §5
# [16] = tested on: Serratia marcenscens; experiment: MIC against bacteria, strain D; type: cell-based; settings: 24 h, 30° C., tested at 100 or 300 mg/liter
# Experimental: as §4, §5
# [17] = tested on: Aspergillus niger; experiment: MIC against fungi, strain G; type: cell-based; settings: malt extract agar
# Experimental: as §1, §2
# [18] = tested on: Aureobasidium pullans; experiment: Growth on wood; settings: 28° C., 4 weeks
# Experimental: Small wooden blocks of spruce, 7×10×10 mm in size, are dried under a vacuum for 30 minutes. The small blocks are then subjected to impregnation under a vacuum, by being left in 20 ml of distilled water and the biocide under vacuum for 30 minutes, and are then exposed to pressure treatment (2 atmospheres gauge by compressed air) in water for 18 hours. The pieces of wood thus treated are either immediately dried or first subjected to bleaching in running water and then dried.
# The small dried pieces of wood are placed on potato glucose agar and the wood and surrounding agar are innoculated with 0.1 ml of a spore suspension of Aureobasidium pullans. After incubation at 28° C. for 4 weeks, the growth is evaluated according to the following plan.
# 4=No growth on the wood, inhibitory zone up to 2 mm
# 5=No growth on the wood, inhibitory zone greater than 2 mm
SMILES,Growth on the agar [1],Growth in the medium [1],MIC against fungi [2] [µg/mL],MIC against fungi [3] [µg/mL],MIC [4] [µg/mL],MIC against fungi [5] [µg/mL],MIC against fungi [6] [µg/mL],MIC against fungi [7] [µg/mL],MIC against fungi [8] [µg/mL],MIC [9] [µg/mL],MIC [10] [µg/mL],"Action against Artemia salina ([11]; 0.25 mg/liter, 6 hours)","Action against Artemia salina ([11]; 0.25 mg/liter, 24 hours)","Action against Artemia salina ([11]; 0.25 mg/liter, 48 hours)",MIC [12] [µg/mL],MIC against fungi [13] [µg/mL],MIC against fungi [14] [µg/mL],MIC [15] [µg/mL],MIC [16] [µg/mL],MIC against fungi [17] [µg/mL],also measured
CCCCCCCCCCCCCC[P+](CCCC)(CCCC)CCCC.CCCCCCCCCCCCCC[P+](CCCC)(CCCC)CCCC.[CH3][Sn-2]([CH3])([Cl])([Cl])([Cl])[Cl] [Example 21],2,1,10,10,100,50,10,10,50,100,100,1-2,3,3,100,10,10,100,100,50,"Action against Artemia salina ([11]; 0.5 mg/liter, 6 hours): 1-2; Action against Artemia salina ([11]; 0.5 mg/liter, 24 hours): 2; Action against Artemia salina ([11]; 0.5 mg/liter, 48 hours): 3; Action against Artemia salina ([11]; 1 mg/liter, 6 hours): 1-2; Action against Artemia salina ([11]; 1 mg/liter, 24 hours): 3; Action against Artemia salina ([11]; 1 mg/liter, 48 hours): 3; Action against Artemia salina ([11]; 2.5 mg/liter, 6 hours): 1-2; Action against Artemia salina ([11]; 2.5 mg/liter, 24 hours): 3; Action against Artemia salina ([11]; 2.5 mg/liter, 48 hours): 3"
CCCCCCCCCCCCCC[P+](CCCC)(CCCC)CCCC.[CH3][Sn-]([Cl])([Cl])([Cl])[Cl] [Example 22],2,1,10,10,100,50,10,10,50,100,100,0,1-2,2-3,100,10,10,100,100,50,"Action against Artemia salina ([11]; 0.5 mg/liter, 6 hours): 1-2; Action against Artemia salina ([11]; 0.5 mg/liter, 24 hours): 3; Action against Artemia salina ([11]; 0.5 mg/liter, 48 hours): 3; Action against Artemia salina ([11]; 1 mg/liter, 6 hours): 1-2; Action against Artemia salina ([11]; 1 mg/liter, 24 hours): 3; Action against Artemia salina ([11]; 1 mg/liter, 48 hours): 3; Action against Artemia salina ([11]; 2.5 mg/liter, 6 hours): 1-2; Action against Artemia salina ([11]; 2.5 mg/liter, 24 hours): 3; Action against Artemia salina ([11]; 2.5 mg/liter, 48 hours): 3"
CCCCCCCCCCCCCC[P+](CCCC)(CCCC)CCCC.CCCCCCCCCCCCCC[P+](CCCC)(CCCC)CCCC.[CH3][Sn-2]([Cl])([Cl])([Cl])([Cl])[Cl] [Example 23],2,1,10,10,100,50,10,10,50,100,100,0,1-2,2-3,100,10,10,100,100,50,"Action against Artemia salina ([11]; 0.5 mg/liter, 6 hours): 1-2; Action against Artemia salina ([11]; 0.5 mg/liter, 24 hours): 2-3; Action against Artemia salina ([11]; 0.5 mg/liter, 48 hours): 3; Action against Artemia salina ([11]; 1 mg/liter, 6 hours): 1-2; Action against Artemia salina ([11]; 1 mg/liter, 24 hours): 3; Action against Artemia salina ([11]; 1 mg/liter, 48 hours): 3; Action against Artemia salina ([11]; 2.5 mg/liter, 6 hours): 1-2; Action against Artemia salina ([11]; 2.5 mg/liter, 24 hours): 3; Action against Artemia salina ([11]; 2.5 mg/liter, 48 hours): 3"
CCCCCCCCCCCCCC[P+](CCCC)(CCCC)CCCC.CCC[CH2][Sn-]([Cl])([Cl])([Cl])[Cl] [Example 24],2,1,10,10,100,> 100,50,10,> 100,100,100,,,,100,50,50,100,100,> 100,
CCCCCCCCCCCCCC[P+](CCCC)(CCCC)CCCC.CCCCCCCCCCCCCC[P+](CCCC)(CCCC)CCCC.CCC[CH2][Sn-2]([Cl])([Cl])([Cl])([Cl])[Cl] [Example 25],2,1,10,10,100,> 100,10,10,100,100,100,,,,100,50,50,100,100,100,
OC[P+](CO)(CO)CO.[Cl][Sn-]([Cl])([CH]1CCCCC1)([CH]1CCCCC1)[CH]1CCCCC1 [Example 26],,,,,,,,,,,,,,,,,,,,,"Growth on wood, leached for 5 days ([18]; 0.01% in H2O): 4 (No growth on the wood, inhibitory zone up to 2 mm); Growth on wood, not leached ([18]; 0.01% in H2O): 5 (No growth on the wood, inhibitory zone greater than 2 mm); Growth on wood, leached for 5 days ([18]; 0.05% in H2O): 5 (No growth on the wood, inhibitory zone greater than 2 mm); Growth on wood, not leached ([18]; 0.05% in H2O): 5 (No growth on the wood, inhibitory zone greater than 2 mm)"
CCCC[P+](CCCC)(CCCC)CCCC.CCC[CH2][Sn-]([Cl])([Cl])([CH2]CCC)[CH2]CCC [Example 45],2,1,10,10,,10,10,10,10,,,,,,,10,10,,,10,
